Drawing on US8618151B2, “Inhibitors of HCV NS5A” (Presidio Pharmaceuticals, Inc., priority 2008, dated 2013), this text covers EC50 for 37 compounds.

The test deals with HCV genotype 1b replicon. The test can be described thus: HCV replicon assay (1b_Huh-Luc/Neo-ET cell line, luciferase readout). Type of test: cell-based. The following applies: Hepatitis C virus, Huh-7, 72 h, read-out: Inhibition of HCV genotype 1b. Here is the method:
Biological activity of the compounds of the invention was determined using an HCV replicon assay. The 1b_Huh-Luc/Neo-ET cell line persistently expressing a bicistronic genotype 1b replicon in Huh 7 cells was obtained from ReBLikon GMBH. This cell line was used to test compound inhibition using luciferase enzyme activity readout as a measurement of compound inhibition of replicon levels.
On Day 1 (the day after plating), each compound is added in triplicate to the cells. Plates incubated for 72 h prior to running the luciferase assay. Enzyme activity was measured using a Bright-Glo Kit (cat. number E2620) manufactured by Promega Corporation. The following equation was used to generate a percent control value for each compound. % Control=(Average Compound Value/Average Control)*100
The EC50 value was determined using GraphPad Prism and the following equation: Y=Bottom+(Top−Bottom)/1+10^((Log IC50−X)*HillSlope))
EC50 values of compounds are repeated several times in the replicon assay.
(In antiviral work, replicon cells carry a viral genome segment that copies itself.)
For `COC(=O)N[C@H](C(=O)N1C[C@H](O)C[C@H]1c1ncc(-c2ccc(-c3ccc4cc(-c5cnc([C@@H]6CCCN6C(=O)[C@@H](NC(=O)OC)C6CCOCC6)[nH]5)ccc4n3)cc2)[nH]1)C(C)C` [compound 147], the EC50 was less than 1 nM.

Turning to `COC(=O)N[C@H](C(=O)N1CCC[C@H]1c1ncc(-c2ccc3ccc(C45CCC(c6cnc([C@@H]7CCCN7C(=O)[C@@H](NC(=O)OC)C(C)C)[nH]6)(CC4)CC5)cc3c2)[nH]1)C(C)C` [compound 261], the EC50 was 1 to 9.9 nM.

Regarding `COC(=O)N[C@@H](C)C(=O)N1CCC[C@H]1c1nc(-c2ccc3nc(-c4ccc(-c5cnc([C@@H]6CCCN6C(=O)[C@@H](NC(=O)OC)C(C)C)[nH]5)cc4)ccc3c2)c[nH]1` [compound 41], the EC50 is less than 1 nM.

Turning to `COC(=O)N[C@H](C(=O)N1CCC[C@H]1c1nc(-c2cnc3cc(-c4ccc(-c5cnc([C@@H]6CCCN6C(=O)[C@@H](NC(=O)OC)C6CCOCC6)[nH]5)cc4)ccc3c2)c[nH]1)C1CCOCC1` [compound 73], the EC50 was less than 1 nM.

Take `COC(=O)N[C@H](C(=O)N1CCC[C@H]1c1nc(-c2ccc3cc(-c4ccc(-c5cnc([C@@H]6CCCN6C(=O)[C@H](NC(=O)OC)c6ccccc6)[nH]5)cc4)ccc3c2)c[nH]1)C(C)C` [compound 8]: the EC50 was less than 1 nM.

As for `COC(=O)N[C@H](C(=O)N1CCC[C@H]1c1ncc(-c2ccc3nc(-c4ccc(-c5cnc([C@@H]6CCCN6C(=O)[C@H](NC(=O)OC)c6ccccc6)[nH]5)cc4F)ccc3c2)[nH]1)C1CCOCC1` [compound 134], the EC50 is less than 1 nM.

Regarding `COC(=O)N[C@H](C(=O)N1CCC[C@H]1c1ncc(-c2ccc3nc(-c4ccc5c(ccc6nc([C@@H]7CCCN7C(=O)[C@@H](NC(=O)OC)C(C)C)[nH]c65)c4)ccc3c2)[nH]1)C(C)C` [compound 296], the EC50 is less than 1 nM.

On to `CNC(=O)N[C@@H](C(=O)N1CCC[C@H]1c1ncc(-c2ccc(-c3cc4ccc(-c5cnc([C@@H]6CCCN6C(=O)[C@@H](NC(=O)OC)C6CCOCC6)[nH]5)cc4cn3)cc2)[nH]1)c1ccccc1` [compound 144], for which the EC50 was less than 1 nM.

For the compound `COC(=O)N[C@H](C(=O)N1CCC[C@H]1c1ncc(-c2ccc(-c3ccc4cc(-c5cnc([C@@H]6CCCN6C(=O)[C@H](NC(=O)OC6CCOCC6)c6ccccc6)[nH]5)ccc4n3)c(F)c2)[nH]1)C(C)C` [compound 121], the EC50 was less than 1 nM.

In the case of `COC(=O)N[C@H](C(=O)N1CCC[C@H]1c1ncc(-c2ccc(-c3nc4ccc(-c5cnc([C@@H]6CCCN6C(=O)[C@@H](NC(=O)OC)C(C)C)[nH]5)cc4s3)cc2)[nH]1)C(C)C` [compound 229], the EC50 was less than 1 nM.

On to `COC(=O)N[C@H](C(=O)N1CCC[C@H]1c1ncc(-c2ccc3cc(-c4ccc5nc([C@@H]6CCCN6C(=O)[C@@H](c6ccccc6)N6CCOCC6)[nH]c5c4)ccc3c2)[nH]1)C(C)C` [compound 213], for which the EC50 is less than 1 nM.

Consider `COC(=O)N[C@H](C(=O)N1CCC[C@H]1c1nc(-c2ccc3nc(N4CCC(c5cnc([C@@H]6CCCN6C(=O)[C@@H](NC(=O)OC)C6CC6)[nH]5)CC4)ccc3c2)c[nH]1)C1CC1` [compound 274], for which the EC50 fell in the range of 1 to 9.9 nM.

For the compound `CNC(=O)N[C@@H](C(=O)N1CCC[C@H]1c1ncc(-c2ccc3nc(-c4ccc(-c5cnc([C@@H]6CCCN6C(=O)[C@@H](NC(=O)OC)C(C)C)[nH]5)cc4)oc3c2)[nH]1)c1ccccc1` [compound 251], the EC50 is less than 1 nM.

As to `COC(=O)N[C@H](C(=O)N1CCC[C@H]1c1ncc(-c2ccc(-c3ccc4cc(-c5c[nH]c([C@@H]6CCCN6C(=O)[C@H](NC(=O)N6CC[C@H](O)C6)c6ccccc6)n5)ccc4c3)cc2)[nH]1)C(C)C` [compound 15], the EC50 was less than 1 nM.

With `CCNC(=O)N[C@@H](C(=O)N1CCC[C@H]1c1nc(-c2ccc3nc(-c4ccc(-c5cnc([C@@H]6CCCN6C(=O)[C@@H](NC(=O)OC)C(C)C)[nH]5)cc4)ccc3c2)c[nH]1)c1ccccc1` [compound 37], the EC50 is less than 1 nM.

With `COC(=O)N[C@H](C(=O)N1CCC[C@H]1c1ncc(-c2ccc(-c3ccc4cc(-c5cnc([C@@H]6CCCN6C(=O)[C@@H](NC(=O)OC)C6CC6)[nH]5)ccc4c3)cc2)[nH]1)C1CC1` [compound 143], the EC50 is less than 1 nM.

For the compound `COC(=O)N[C@H](C(=O)N1CCC[C@H]1c1ncc(-c2ccc(-c3ccc4cc(-c5c[nH]c([C@@H]6CCCN6C(=O)[C@H](NC(=O)OC)c6ccccc6)n5)ccc4c3)nc2)[nH]1)C(C)C` [compound 48], the EC50 was less than 1 nM.

With `COC(=O)N[C@H](C(=O)N1CCC[C@H]1c1ncc(-c2ccc3oc(-c4ccc(-c5cnc([C@@H]6CCCN6C(=O)[C@@H](NC(=O)OC)C6CCOCC6)[nH]5)cc4)nc3c2)[nH]1)C(C)C` [compound 259], the EC50 is less than 1 nM.

Turning to `COC(=O)N[C@H](C(=O)N1CCC[C@H]1c1ncc(-c2ccc(-c3cnc4ccc(-c5cnc([C@@H]6CCCN6C(=O)[C@@H](NC(=O)OC)C(C)C)[nH]5)cc4n3)cc2)[nH]1)C(C)C` [compound 12], the EC50 lay in the range of 1 to 9.9 nM.

As to `COC(=O)N[C@H](C(=O)N1CCC[C@H]1c1ncc(-c2ccc3cc(-c4ccc5nc([C@@H]6CCCN6C(=O)[C@@H](NC(=O)OC)C(C)C)[nH]c5c4)ccc3c2)[nH]1)C(C)C` [compound 174], the EC50 is less than 1 nM.

As for `COC(=O)N[C@H](C(=O)N1CCC[C@H]1c1ncc(-c2cccc3c(-c4ccc5nc([C@@H]6CCCN6C(=O)[C@@H](NC(=O)OC)C(C)C)[nH]c5c4)cccc23)[nH]1)C(C)C` [compound 207], the EC50 is less than 1 nM.

In the case of `COC(=O)N[C@H](C(=O)N1CCC[C@H]1c1nc(-c2ccc3nc(-c4ccc(-c5cnc([C@@H]6CCCN6C(=O)[C@@H](NC(=O)OC)C6CCOCC6)[nH]5)cc4)ccc3c2)c[nH]1)C(C)C` [compound 42], the EC50 is less than 1 nM.

For the compound `COC(=O)N[C@H](C(=O)N1CCC[C@H]1c1nc(-c2ccc3cc(-c4ccc(-c5cnc([C@@H]6CCCN6C(=O)[C@@H](c6ccccc6)N6CCCC6)[nH]5)cc4)ccc3c2)c[nH]1)C(C)C` [compound 10], the EC50 is less than 1 nM.

Turning to `COC(=O)N[C@H](C(=O)N1CCC[C@H]1c1nc(-c2ccc3cc(-c4ccc(-c5cnc([C@@H]6CCCN6C(=O)[C@@H](NC(=O)OC)[C@@H](C)OC)[nH]5)cc4)ccc3c2)c[nH]1)[C@@H](C)OC` [compound 3], the EC50 is less than 1 nM.

For the compound `COC(=O)N[C@H](C(=O)N1CCC[C@H]1c1ncc(-c2ccc3nc(-c4ccc(-c5cnc([C@@H]6C[C@@H](O)CN6C(=O)[C@@H](NC(=O)OC)C(C)C)[nH]5)cc4)ccc3c2)[nH]1)C(C)C` [compound 146], the EC50 was less than 1 nM.

Consider `COC(=O)N[C@@H](C)C(=O)N1CCC[C@H]1c1ncc(-c2ccc(-c3ccc4cc(-c5c[nH]c([C@@H]6CCCN6C(=O)[C@@H](NC(=O)OC)C(C)C)n5)ccc4n3)cc2)[nH]1` [compound 44], for which the EC50 is less than 1 nM.

For `COC(=O)N[C@H](C(=O)N1CCC[C@H]1c1nc(-c2ccc3cc(-c4ccc(-c5cnc([C@@H]6CCCN6C(=O)[C@@H](NC(=O)OC6CCOCC6)c6ccccc6)[nH]5)cc4)ccc3c2)c[nH]1)C1CCOCC1` [compound 112], the EC50 is less than 1 nM.

On to `COC(=O)N[C@H](C(=O)N1CCC[C@H]1c1nc(-c2ccc3nc(-c4ccc(-c5cnc([C@@H]6CCCN6C(=O)[C@@H](NC(=O)OC)C(C)C)[nH]5)cc4F)ccc3c2)c[nH]1)C(C)C` [compound 96], for which the EC50 is less than 1 nM.

`COC(=O)N[C@H](C(=O)N1CCC[C@H]1c1nc(-c2ccc3nc(-c4ccc(-c5cnc([C@@H]6CCCN6C(=O)[C@H](NC(=O)OC)c6ccccc6)[nH]5)cc4F)ccc3c2)c[nH]1)C(C)C` [compound 107]: the EC50 is less than 1 nM.

On to `COC(=O)N[C@H](C(=O)N1CCC[C@H]1c1ncc(-c2ccc3cc(-c4ccc(-c5cnc([C@@H]6COCCN6C(=O)[C@@H](NC(=O)OC)C(C)C)[nH]5)cc4)ccc3c2)[nH]1)C(C)C` [compound 139], for which the EC50 is less than 1 nM.

As to `COC(=O)N[C@@H](C(=O)N1CCCC[C@H]1c1ncc(-c2ccc(-c3nc4ccc(-c5cnc([C@@H]6CCCCN6C(=O)[C@H](NC(=O)OC)c6ccccc6)[nH]5)cc4s3)cc2)[nH]1)c1ccccc1` [compound 248], the EC50 is less than 1 nM.

As for `COC(=O)N[C@H](C(=O)N1CCC[C@H]1c1nc(-c2ccc3nc(-c4ccc(-c5cnc([C@@H]6CCCN6C(=O)[C@H](NC(=O)OC(C)(C)C)c6ccccc6)[nH]5)cc4)ccc3c2)c[nH]1)C(C)C` [compound 30], the EC50 was less than 1 nM.

Take `COC(=O)N[C@@H](C(=O)N1CCC[C@H]1c1ncc(-c2ccc(-c3nc4ccc(-c5cnc([C@@H]6CCCN6C(=O)[C@H](NC(=O)OC)c6ccccc6)[nH]5)cc4s3)cc2)[nH]1)c1ccccc1` [compound 230]: the EC50 was less than 1 nM.

With `COC(=O)N[C@@H](C(=O)N1CCC[C@H]1c1ncc(-c2ccc(-c3nc4cc(-c5cnc([C@@H]6CCCN6C(=O)[C@H](NC(=O)OC)c6ccccc6)[nH]5)ccc4n3C)cc2)[nH]1)c1ccccc1` [compound 233], the EC50 was less than 1 nM.

For the compound `COC(=O)N[C@H](C(=O)N1CCC[C@H]1c1ncc(-c2ccc(-c3nc4ccc(-c5cnc([C@@H]6CCCN6C(=O)[C@H](NC(=O)OC(C)(C)C)c6ccccc6)[nH]5)cc4s3)cc2)[nH]1)C(C)C` [compound 242], the EC50 was less than 1 nM.

For `COC(=O)N[C@H](C(=O)N1CCC[C@H]1c1ncc(-c2ccc3cc(-c4ccc5c(c4)CCc4nc([C@@H]6CCCN6C(=O)[C@@H](NC(=O)OC)C(C)C)[nH]c4-5)ncc3c2)[nH]1)C(C)C` [compound 292], the EC50 is less than 1 nM.

In the case of `COC(=O)N[C@H](C(=O)N1CCC[C@H]1c1ncc(-c2ccc3cc(-c4ccc5nc([C@@H]6CCCN6C(=O)[C@@H](NC(=O)OC)C(C)C)[nH]c5n4)ccc3c2)[nH]1)C(C)C` [compound 198], the EC50 was less than 1 nM.
